Data reported in publication PMC8416020 (eLife, 2021).
Where no end group is shown, it is not given here.

System: GHSR labeled with 7H4MC-ethylglycine at W215^5.41
Assay: Ligand binding and activation of W215^5.41-labeled receptor
Format: biochemical, human
Settings: basal activity markedly decreased

ghrelin: natural full agonist of GHSR, natural peptide agonist (GSSFLSPEHQRVQQRKESKKPPAKLQPR; not fully specified; ends and bridges not checked; UniProt Q9UBU3 24-51, looked up)
ligand binding and activation of W215^5.41 mutant: could still bind its ligands and be activated by ghrelin
